Measured values taken from patent publication US20200393446A1, “BIOLUMINESCENT SCREENING TEST FOR DETECTING CELL CYTOLYSIS” (Centre National de la Recherche Scientifique (CNRS), priority 2017, published 2020).

Experiments:
[1] = tested on: K562-NanoLuc cells; assay: Lysis of K562-NanoLuc cells by detergent, NanoLuc activity in supernatant; type: cell-based, human; details: cells contacted with detergent, FIG. 1A
[2] = tested on: NK cells; assay: NK cell cytotoxicity assay: NanoLuc release from K562-NanoLuc cells co-cultured with compound-treated PBMC; type: cell-based, human; details: PBMCs incubated 16 hours with Clobenpropit, 400,000 PBMCs/16,000 K562-NanoLuc, four hours of co-culture, FIG. 3B
Procedure: PBMC from healthy donors were incubated overnight in the absence or presence of compounds to be tested. Unless specified otherwise, PBMC were plated in 96-well round-bottom plates at a concentration of 400,000 cells/well in a final volume of 100 μL. After 16 hours, 16.000 K562-NanoLuc or twINNE cells were added to cultures wells (100 μL of cell suspension at 160,000 cells/ml). Total volume in culture wells was 200 μL, and plates were centrifuged briefly for 2 min at 1,200 rpm. Unless specified otherwise, 20 μL of culture supernatants were collected and NanoLuc activity was determined by adding 40 μL of RPMI-1640 and 30 μL of NanoLuc reagent (Promega) in black, flat-bottom, 96½-well plates. Bioluminescence was measured during 0.1 s with a luminometer (Enspire; Perkin Elmer).

Compound	activity of the NanoLuc enzyme in the supernatant of K562-NanoLuc cells [1]	cytolytic activity of NK cells (NanoLuc activity in supernatant) [2]
NP40	increased	–
NC(=NCc1ccc(Cl)cc1)SCCCc1cnc[nH]1 [Clobenpropit]	–	completely inhibited
